Data as given in patent US6689777B2 (Kenneth S. Warren Institute, priority 2001, dated 2004).
Structures can show the parent of a compound that is named as a salt. Where two headings read alike, the source gives them in different places.

How the values were obtained:
synthetic hemozoin = assay: Depolymerization of synthetic hemozoin in vitro; format: biochemical; conditions: 50 mM test compound, acetate buffer pH 5.0, 37° C., 16 hours
Procedure: This activity is evaluated by incubating a suspension of monomer-free hemozoin at 37° C. with compounds of the present invention for 16 hours. After incubation, hemozoin is separated from any solubilized heme and soluble heme oligomers, the oligomers depolymerized, and the heme present in the supernatants determined.
The synthesis of synthetic hemozoin is carried out as previously described (26). In brief, 60 μmoles of hematin was dissolved in 8 ml of 0.1N NaOH. Following dissolution 49 mmoles of glacial acetic acid was added and the suspension heated at 70° C. overnight. The precipitate was then washed extensively with LPS-free water. In order to remove unreacted heme the precipitate was extracted with 0.1M sodium bicarbonate (pH 9.1) for three hours. The remaining insoluble material was recovered by centrifugation, resuspended in EtOH and transferred to sterile Eppendorf tubes. The material was washed several times in EtOH and finally resuspended in LPS-free double-distilled H2O. The hemozoin preparation was then tested for endotoxin by using the Limulus Amebocyte Lysate test following manufacturer's instructions. Although the preparation of LPS-free hemozoin from native or synthetic sources is not critical for in vitro depolymerization studies, it is critical for studies involving monocytes and animals (see Examples below). Small amounts of LPS can evoke a considerable cytokine response and interfere with interpretation of results. The amount of heme in the final product was determined from a small aliquot using the pyridine-hemochrome method as previously described (26). The preparations are stored at 4° C. until used.
A suspension of monomer-free hemozoin (equivalent to 2 mM free heme) as prepared above was incubated at 37° C. with […] test compound in total volume of 500 μl in acetate buffer (pH: 5.0) in siliconized Eppendorf tubes (Brinkmann Instruments, Westbury, N.Y.) for 16 hours. A control sample containing distilled H2O instead of hemozoin was included. The samples were centrifuged at 14,000 rpm (Eppendorf centrifuge model 5415C, Brinkmann Instruments, Westbury, N.Y.) for 20 min; then 225 μl supernatant was diluted in 175 μl acetate buffer (pH 5.0). Another 225 μl was added to 175 μl 0.5 M NaOH to dissolve possible oligomeric depolymerization products to monomers. Half of the pellet was washed twice for 2.5 hr in 200 μl 2.5% SDS (v/v) in dH2O, the other half was washed twice in 200 μl HCO3^− buffer (pH: 9.1). Both sample supernatants and SDS and HCO3^− buffer supernatants were centrifuged 14,000 rpm for 20 min. and supernatants were added to 10 μl sodium dithionite (200 mg/ml dH2O) to reduce the heme monomers in solution to Fe^2+. All samples were measured in triplicate at 540 nm (Model UV1601 spectrophotometer, Shimradzu Corp, Columbia, Md.). The OD obtained from the blind sample was subtracted from the OD of the hemozoin containing sample.

P. falciparum [1] = assay: P. falciparum growth in culture ([3H]-hypoxanthine incorporation); format: cell-based; conditions: Plasmodium falciparum, read-out: IC50 vs. P. falc.
P. falciparum [2] = assay: as above; format: cell-based; conditions: growth in culture, [3H]-hypoxanthine incorporation, read-out: IC50 vs. P. falc.
Procedure: To determine the effectiveness of the compounds of the present invention against the erythrocytic stage of the malarial parasite, P. falciparum was grown in human erythrocyte suspensions and maintained at 37° C. in candle jars according to the method of Trager and Jensen (15,16). Parasites were stage-synchronized by incubating mainly ring-stage infected erythrocytes in 5% sorbitol for 10 minutes at room temperature (17). Cultures undergo one growth cycle (2 days) before use. Strains used include the chloroquine sensitive strains D10 and HB3, and the chloroquine resistant isolates Dd2 and FCR.
Parasite growth was determined by measuring incorporation of [^3H]-hypoxanthine into the nucleic acids of the parasite (18). Effects of the compounds of the present invention on parasite growth was determined by measuring the reduction in incorporation of radiolabel as compared to controls. Briefly, assays are performed in 96-well microtiter plates. After 24 h of candle jar incubation at 37° C., [^3H]-hypoxanthine is added to each well. After 18 h the plates are harvested onto glass fiber filter 96 well plates using a cell harvester, dried, and the amount of radioactivity is determined. Drug IC50 values (molar concentration which decreases [^3H]-hypoxanthine incorporation by 50% as compared to drug-free controls) are calculated by extrapolation of the log dose-response curves using curve fitting software (Origin, Microcal Software, Northampton, Mass.).
Parasites were grown in A^+ human erythrocyte suspensions using RPMI-1640 (GIBCO, Gaithersburg, Md.) medium supplemented by 25 mM HEPES (pH 7.35), 0.2% NaHCO3 (23 mM), 0.2% (D)-Glucose and 10% human A^+ plasma and maintained at 37° C. in candle jars according to the method of Trager and Jensen (20,21) Parasites are stage synchronized by incubating mainly ring-stage infected erythrocytes in 5% sorbitol for 10 minutes at room temperature (22). Cultures undergo one growth cycle (2 days) before use. Strains used include the chloroquine sensitive strains D10 and HB3, and the chloroquine resistant isolates Dd2 and FCR.
Parasite growth was determined by measuring incorporation of [^3H]-hypoxanthine into the nucleic acids of the parasite as previously described (23). Effects of the compounds of the present invention on parasite growth was determined by measuring the reduction in incorporation of radiolabel as compared to controls. Briefly, assays were performed in 96-well microtiter plates, each well containing 200 μl of synchronized ring-stage infected erythrocytes in complete media and 50 μl of drug dilution or solvent. The final hematocrit was 1.5% and percent parasitemias range from 2-8%. After 24 h of candle jar incubation at 37° C., 2.5 μCi of [^3H]-hypoxanthine (17 Ci/mmol, Amersham, Arlington Heights, Ill.) in RPMI-1640 media supplemented with 25 mM HEPES (pH 7.35), 0.2% NaHCO3 (23 mM), 0.2% (D)-Glucose is added to each well. After 18 h the plates were harvested onto glass fiber filter 96 well plates using a cell harvester, dried, and 25 μl scintillation acid added per well. The, amount of radioactivity was determined. Drug IC50 values (molar concentration which decreases [^3H]-hypoxanthine incorporation by 50% as compared to drug-free controls) are calculated by extrapolation of the log dose-response curves using curve fitting software (Origin, Microcal Software, Northampton, Mass.). The effects on parasite grown by aromatic guanyllhydrazones, bisguanylhydrazones, naphthothiazolium salts, and other compounds of the instant invention, together with data on hemozoin depolymerization from Example 5, are shown in tables 1 through 4, respectively.

[3] = Table 3, naphthothiazolium salts, in culture
[4] = Table 1, aryl monoguanylhydrazones, growth in culture
[5] = Table 1, aryl monoguanylhydrazones

SMILES | IC50 (P. falciparum [1]; [3]) | IC50 (P. falciparum [1]; [4]) | % depol. hemoz. (synthetic hemozoin; Table 3) | % depol. hemoz. (synthetic hemozoin; Table 1) | other results
Cl.Cl.N=C(N)NN=C1CCC(=NNC(=N)N)CC1 [2,2′-(1,4-cyclohexanediylidene)bis(hydrazinecarboximidamide) dihydrochloride] |  |  |  |  | % depol. hemoz. (synthetic hemozoin; Table 4): 0%; IC50 (P. falciparum [1]; Table 4, in culture): 2000 nM
CC(=NNC(=N)N)c1cccc(C(C)=NNC(=N)N)c1N [2,2′-[(2-amino-1,3-phenylene)diethylidyne]bis(hydrazinecarboximidamide) dihydrochloride] |  |  |  |  | IC50 (P. falciparum [2]; Table 2, aromatic bisguanylhydrazones): 6300 nM
C/C(=N\NC(=O)CN(C)C)c1cccc(/C(C)=N/NC(=O)CN(C)C)n1.Cl.Cl [2,6-bis[1-[[(dimethylamino)acetyl]hydrazono]ethyl]pyridine dihydrochloride] |  |  |  |  | % depol. hemoz. (synthetic hemozoin; Table 4): 0%; IC50 (P. falciparum [1]; Table 4, in culture): 1500 nM
CC(=NNC(=N)N)c1ccc(OCc2ccccc2)c(C)c1O.Cl [2-[1-(4-benzyloxy-2-hydroxy-3-methylphenyl)ethylidene]hydrazinecarboximidamide hydrochloride] |  | 1330 nM |  | 1.9% | 
CC(CCC1=C(C)C(=O)c2ccccc2C1=O)=NNC(=N)N.Cl [2-[3-(1,4-dihydro-1,4-dioxo-3-methyl-2-naphthalenyl)-1-methylpropylidene]hydrazinecarboximidamide hydrochloride] |  |  |  |  | % depol. hemoz. (synthetic hemozoin; Table 4): 0.1%; IC50 (P. falciparum [1]; Table 4, in culture): 1300 nM
CC1=CC(=O)c2cc(CC=NNC(=N)N)ccc2C1=O.Cl [2-[(1,4-dihydro-1,4-dioxo-3-methyl-7-naphthalenyl)ethylidene]hydrazinecarboximidamide hydrochloride] |  | 1800 nM |  | 0.4% | 
Cl.N=C(N)NN=Cc1cccc(O)c1O [2-[(2,3-dihydroxyphenyl)methylene]hydrazinecarboximidamide hydrochloride] |  | > 10000 nM |  | 4.1% | 
COc1ccc(C=NNC(=N)N)c(O)c1 [2-[(2-hydroxy-4-methoxyphenyl)methylene]hydrazinecarboximidamide hydrochloride] |  | 1000 nM |  |  | 
COc1ccc(O)c(C=NNC(=N)N)c1.Cl [2-[(2-hydroxy-5-methoxyphenyl)methylene]hydrazinecarboximidamide hydrochloride] |  | 4400 nM |  | 0.9% | 
Cl.N=C(N)NN=CCc1ccccc1O [2-[(2-hydroxyphenyl)ethylidene]hydrazinecarboximidamide hydrochloride] |  | > 10000 nM |  | 0.4% | 
Cl.N=C(N)NN=Cc1ccccc1O [2-[(2-hydroxyphenyl)methylene]hydrazinecarboximidamide hydrochloride] |  | 3500 nM |  | 3.5% | 
Cl.N=C(N)NN=CCc1ccc(O)c(O)c1 [2-[(3,4-dihydroxyphenyl)ethylidene]hydrazinecarboximidamide hydrochloride] |  | > 10000 nM |  | 0.5% | 
N=C(N)NN=Cc1ccnc2ccccc12 [2-[(4-quinolinyl)methylene]hydrazinecarboximidamide hydrochloride] |  | 3400 nM |  |  | 
CC(=NNC(=N)N)c1cccc(-c2cc(C)n(C)c(=N)n2)c1 [2-[[3-(3,4-dimethyl-2(3H)-imino-6-pyrimidinyl)phenyl]ethylidene]hydrazinecarboximidamide hydrochloride hydroiodide] |  |  |  |  | IC50 (P. falciparum [2]; [5]): 1050 nM
CC(=NNC(=N)N)c1ccc(-c2cc(C)n(C)c(=N)n2)cc1 [2-[[4-(3,4-dimethyl-2(3H)-imino-6-pyrimidinyl)phenyl]ethylidene]hydrazinecarboximidamide hydrochloride hydroiodide] |  |  |  |  | IC50 (P. falciparum [2]; [5]): 600 nM

Further lines, with some results ahead:

IC50 (P. falciparum [1]; [3]) | IC50 (P. falciparum [1]; [4]) | SMILES | % depol. hemoz. (synthetic hemozoin; Table 3) | % depol. hemoz. (synthetic hemozoin; Table 1) | other results
> 10000 nM |  | Cc1c(O)c2ccccc2c2c1sc(Nc1ccccc1)[n+]2C.[Cl-] [1,2-dihydro-1,4-dimethyl-2-(phenylimino)naphtho[1,2-d]thiazol-5-ol monohydrochloride] | 0.0% |  | 
1400 nM |  | Cc1c(O)c2ccccc2c2c1sc(NCCO)[n+]2C.[Cl-] [1,2-dihydro-2-[(2-hydroxyethyl)imino]-1,4-dimethylnaphtho[1,2-d]thiazol-5-ol monohydrochloride] | 3.1% |  | 
6000 nM |  | C=CCNc1sc2c(C)c(O)c3ccccc3c2[n+]1CC=C.[Cl-] [1,2-dihydro-4-methyl-1-(2-propenyl)-2-(2-propenylimino)naphtho[1,2-d]thiazol-5-ol monohydrochloride] | 4.8% |  | 
4200 nM |  | Cc1c(O)c2ccccc2c2nc(Nc3ccccc3)sc12.Cl [1,2-dihydro-4-methyl-2-(phenylimino)naphtho[1,2-d]thiazol-5-ol monohydrochloride] | 0.0% |  | 
2500 nM |  | CCNc1sc2c(C)c(O)c3ccccc3c2[n+]1CC.[Cl-] [1-ethyl-2-(ethylimino)-1,2-dihydro-4-methylnaphtho[1,2-d]thiazol-5-ol monohydrochloride] | 2.4% |  | 
1000 nM |  | Cc1c(O)c2ccccc2c2c1sc(NC1CCCCC1)[n+]2CCO.[Cl-] [2-(cyclohexylimino)-5-hydroxy-4-methylnaphtho[1,2-d]thiazole-1(2H)-ethanol monohydrochloride] | 0.4% |  | 
 | 6000 nM | N=C(N)NN=CCc1ccc2ccccc2c1O [2-[(1-hydroxy-2-naphthyl)ethylidene]hydrazinecarboximidamide hydrochloride] |  |  | 
6300 nM |  | C=CCNc1nc2c(s1)c(C)c(O)c1ccccc12.Cl [4-methyl-2-(2-propenylamino)naphtho[1,2-d]thiazol-5-ol monohydrochloride] | 0.4% |  | 
